The NIST ThermoML archive (doi:10.1016/j.jct.2014.05.016)

Test: xn = mol fraction of the nth substance listed
Conditions: 100 kPa, Liquid; for viscosity: Concentric cylinders viscometry; for mass density: Vibrating tube method

CCCC[n+]1ccccc1.F[B-](F)(F)F [1-butylpyridinium tetrafluoroborate] + CCCCn1cc[n+](C)c1.F[B-](F)(F)F
Conditions	mass density [kg/m3]	viscosity [mPa·s]
293.15 K, x2 = 0	1216.6	228.9
293.15 K, x2 = 0.1007	1215.4	–
293.15 K, x2 = 0.1009	–	219.4
293.15 K, x2 = 0.2004	1214.3	–
293.15 K, x2 = 0.2005	–	209.3
293.15 K, x2 = 0.3001	1213.1	–
293.15 K, x2 = 0.3003	–	199.5
293.15 K, x2 = 0.4001	–	190
293.15 K, x2 = 0.4004	1211.7	–
293.15 K, x2 = 0.4999	–	180.9
293.15 K, x2 = 0.5009	1210.6	–
293.15 K, x2 = 0.6004	1209.4	–
293.15 K, x2 = 0.6007	–	172.5
293.15 K, x2 = 0.7004	–	163.9
293.15 K, x2 = 0.7013	1208.1	–
293.15 K, x2 = 0.8001	–	156.9
293.15 K, x2 = 0.8007	1206.7	–
293.15 K, x2 = 0.8987	1205.5	–
293.15 K, x2 = 0.8998	–	148.7
298.15 K, x2 = 0	1213.1	166.9
298.15 K, x2 = 0.1007	1211.9	–
298.15 K, x2 = 0.1009	–	160.8
298.15 K, x2 = 0.2004	1210.8	–
298.15 K, x2 = 0.2005	–	153.7
298.15 K, x2 = 0.3001	1209.6	–
298.15 K, x2 = 0.3003	–	147.1
298.15 K, x2 = 0.4001	–	140.8
298.15 K, x2 = 0.4004	1208.2	–
298.15 K, x2 = 0.4999	–	134.6
298.15 K, x2 = 0.5009	1207.1	–
298.15 K, x2 = 0.6004	1205.8	–
298.15 K, x2 = 0.6007	–	128.8
298.15 K, x2 = 0.7004	–	123.1
298.15 K, x2 = 0.7013	1204.5	–
298.15 K, x2 = 0.8001	–	117.9
298.15 K, x2 = 0.8007	1203.1	–
298.15 K, x2 = 0.8987	1202	–
298.15 K, x2 = 0.8998	–	112.7
303.15 K, x2 = 0	1209.6	124.5
303.15 K, x2 = 0.1007	1208.4	–
303.15 K, x2 = 0.1009	–	120.4
303.15 K, x2 = 0.2004	1207.3	–
303.15 K, x2 = 0.2005	–	115.6
303.15 K, x2 = 0.3001	1206.1	–
303.15 K, x2 = 0.3003	–	111.1
303.15 K, x2 = 0.4001	–	106.9
303.15 K, x2 = 0.4004	1204.7	–
303.15 K, x2 = 0.4999	–	102.5
303.15 K, x2 = 0.5009	1203.6	–
303.15 K, x2 = 0.6004	1202.3	–
303.15 K, x2 = 0.6007	–	98.69
303.15 K, x2 = 0.7004	–	94.64
303.15 K, x2 = 0.7013	1201	–
303.15 K, x2 = 0.8001	–	90.99
303.15 K, x2 = 0.8007	1199.6	–
303.15 K, x2 = 0.8987	1198.4	–
303.15 K, x2 = 0.8998	–	87.26
308.15 K, x2 = 0	1206.2	94.97
308.15 K, x2 = 0.1007	1204.9	–
308.15 K, x2 = 0.1009	–	92.11
308.15 K, x2 = 0.2004	1203.8	–
308.15 K, x2 = 0.2005	–	88.99
308.15 K, x2 = 0.3001	1202.6	–
308.15 K, x2 = 0.3003	–	85.73
308.15 K, x2 = 0.4001	–	82.59
308.15 K, x2 = 0.4004	1201.2	–
308.15 K, x2 = 0.4999	–	79.65
308.15 K, x2 = 0.5009	1200.1	–
308.15 K, x2 = 0.6004	1198.8	–
308.15 K, x2 = 0.6007	–	76.79
308.15 K, x2 = 0.7004	–	73.92
308.15 K, x2 = 0.7013	1197.5	–
308.15 K, x2 = 0.8001	–	71.3
308.15 K, x2 = 0.8007	1196.1	–
308.15 K, x2 = 0.8987	1194.9	–
308.15 K, x2 = 0.8998	–	68.74
313.15 K, x2 = 0	1202.8	73.94
313.15 K, x2 = 0.1007	1201.5	–
313.15 K, x2 = 0.1009	–	71.92
313.15 K, x2 = 0.2004	1200.4	–
313.15 K, x2 = 0.2005	–	69.59
313.15 K, x2 = 0.3001	1199.2	–
313.15 K, x2 = 0.3003	–	67.3
313.15 K, x2 = 0.4001	–	65.09
313.15 K, x2 = 0.4004	1197.8	–
313.15 K, x2 = 0.4999	–	62.92
313.15 K, x2 = 0.5009	1196.6	–
313.15 K, x2 = 0.6004	1195.3	–
313.15 K, x2 = 0.6007	–	61
313.15 K, x2 = 0.7004	–	58.91
313.15 K, x2 = 0.7013	1193.9	–
313.15 K, x2 = 0.8001	–	56.91
313.15 K, x2 = 0.8007	1192.6	–
313.15 K, x2 = 0.8987	1191.4	–
313.15 K, x2 = 0.8998	–	54.99
318.15 K, x2 = 0	–	58.64
318.15 K, x2 = 0.1009	–	57.19
318.15 K, x2 = 0.2005	–	55.49
318.15 K, x2 = 0.3003	–	53.81
318.15 K, x2 = 0.4001	–	52.19
318.15 K, x2 = 0.4999	–	50.59
318.15 K, x2 = 0.6007	–	49.12
318.15 K, x2 = 0.7004	–	47.51
318.15 K, x2 = 0.8001	–	46.14
318.15 K, x2 = 0.8998	–	44.72
